US10100076B2, “Modified nucleosides for the treatment of viral infections and abnormal cellular proliferation” (priority 2000, dated 2018)

Assays:
HCV replicon = HCV replicon system in Huh7 cells, replicon RNA by Q-RT-PCR (HCV ΔCt, ΔΔCt); type: cell-based, hepatitis C virus; settings: for Ave. ΔΔCt: HCV RNA ΔCt minus rRNA ΔCt; for Ave. HCV RNA ΔCt: HCV replicon in Huh7 cells; for average ΔΔCt: HCV RNA ΔCt minus rDNA ΔCt
[1] = tested on: rRNA (host RNA polymerase I product); assay: rRNA ΔCt in Huh7 replicon cells (effect on host RNA polymerases); settings: Table 24, average of n
Excerpt: In a typical setting, a compound might reduce both the host RNA polymerase activity and the replicon-encoded polymerase activity. Therefore, quantification of rRNA (or any other host RNA polymerase I product) or beta-actin mRNA (or any other host RNA polymerase II) and comparison with RNA levels of the no-drug control is a relative measurement of the effect of the test compound on host RNA polymerases.
With the availability of both the HCV ΔCt data and the rRNA ΔCt, a specificity parameter can be introduced. This parameter is obtained by subtracting both ΔCt values from each other.

rDNA (host DNA) = assay: rDNA ΔCt in Huh7 replicon cells (effect on cellular DNA polymerases); settings: Table 25, average of N
Excerpt: In another typical setting, a compound might reduce the host RNA polymerase activity, but not the host DNA polymerase activity. Therefore, quantification of rDNA or beta-actin DNA (or any other host DNA fragment) and comparison with DNA levels of the no-drug control is a relative measurement of the inhibitory effect of the test compound on cellular DNA polymerases.
With the availability of both the HCV ΔCt data and the rDNA ΔCt, a specificity parameter can be introduced. This parameter is obtained by subtracting both ΔCt values from each other.
Also: test concentration or dose not given here.

Compound	Ave. ΔΔCt (HCV replicon; Table 24)	Ave. HCV RNA ΔCt (HCV replicon; Table 24, average of n)	Ave. rRNA ΔCt [1]	average ΔΔCt (HCV replicon; Table 25)	Ave. HCV RNA ΔCt (HCV replicon; Table 25, average of N)	Ave. rDNA ΔCt (rDNA (host DNA))
NC(=O)c1ncn([C@@H]2O[C@H](CO)[C@@H](O)[C@H]2O)n1 [RIB, ribavirin, reference compound]	0.78	3.13	2.35	–	–	–
Nc1ccn([C@@H]2O[C@H](CO)[C@@H](O)[C@@H]2O)c(=O)n1 [β-D-AA]	1.42	3.83	2.41	1.88	3.83	2.53
Nc1ccn([C@@H]2O[C@H](CO)[C@H](Br)[C@H]2O)c(=O)n1 [β-D-AI]	0.48	2.93	2.43	4.55	3.76	−0.96
CS(=O)(=O)OC1C(CO)OC(n2ccc(N)nc2=O)C1O [β-D-AK]	1.25	3.73	2.48	0.79	3.51	2.69
Cc1ccc(S(=O)(=O)O[C@@H]2[C@@H](O)[C@H](n3ccc(N)nc3=O)O[C@@H]2CO)cc1 [β-D-AL]	0.36	3.08	2.72	0.61	3.18	2.56
Nc1ccn([C@@H]2O[C@H](CO)[C@@H](O)[C@@H]2Cl)c(=O)n1 [β-D-AN]	1.22	3.33	2.11	1.88	3.86	2.53
[2H]c1c(N)nc(=O)n([C@@H]2O[C@H](CO)[C@@H](O)[C@@H]2O)c1[2H] [β-D-AO]	1.97	4.10	2.13	2.26	4.10	1.84
Nc1nc(=O)n([C@@H]2O[C@H](CO)[C@@H](O)[C@@H]2O)cc1F [β-D-AP]	0.05	3.27	3.23	1.02	3.27	2.26
Nc1nc(=O)n([C@@H]2O[C@H](CO)[C@@H](O)[C@H]2O)cc1F [β-D-AQ]	1.22	4.45	3.22	2.73	4.75	1.78
Nc1nc(=O)n(C2OC(CO)C(Br)C2O)cc1F [β-D-AT]	0.64	3.71	3.07	1.43	3.81	2.43
Nc1nc(=O)n([C@@H]2O[C@H](CO)[C@H](Br)[C@H]2O)cc1I [β-D-BE]	1.64	4.44	2.80	2.98	4.99	2.06
Cc1ccc(S(=O)(=O)O[C@@H]2[C@@H](O)[C@H](n3cc(I)c(N)nc3=O)O[C@@H]2CO)cc1 [β-D-BF]	1.68	4.37	2.69	3.28	5.27	2.04
Nc1nc(=O)n([C@@H]2O[C@H](CO)[C@@H](O)[C@@H]2Br)cc1I [β-D-BH]	2.15	3.06	0.91	1.64	3.06	1.42
